Assay results reported in US20260258066A1, “NOVEL RUTHENIUM COMPLEXES, METHOD OF THEIR SYNTHESIS, INTERMEDIATE COMPOUNDS USED IN THIS METHOD, METHOD OF THEIR SYNTHESIS AND THE USE OF NOVEL RUTHENIUM COMPLEXES IN OLEFIN METATHESIS REACTIONS” (UNIWERSYTET WARSZAWSKI, priority 2022, published 2026).

Experiment: Test of complex solubility in nonpolar solvents (n-hexane)
Assay type: physicochemical
Conditions: 5 mg catalyst, n-hexane added in portions, room temperature, magnetic stirring
Experimental: In a round-bottom flask equipped with a stirring bar, the catalyst (Ru-a, Ru-b, Ru-c, Ru-d, Ru-h, Ru-15, Ru-16 and Hov-II) was placed, in the amount of 5 mg of each. n-hexane was added to each of the flasks in portions, at room temperature, and the mixture was stirred using a magnetic stirrer. The Ru-a dissolved in 6 mL, and the Ru-h complex in 4 mL of the solvent. In the case of the Ru-15 complex, almost complete solubility was observed after adding 20 mL of n-hexane.

SMILES: Cc1cc(C)c(N2CCN(c3c(C)cc(C)cc3C)[C]2=[Ru]([Cl])([Cl])=[CH]c2ccccc2OC(C)C)c(C)c1 [Hov-II]
- Volume of n-hexane in which 5 mg of the complex dissolved: > 20 mL
